We go through 15 compounds from US11447465B2, “Pharmaceutical compounds for treatment of medical disorders” (Achillion Pharmaceuticals, Inc., priority 2017, dated 2022).

The target in the assay is Human Factor D (Homo sapiens (Human), UniProt P00746). The assay can be described thus: Human Factor D Assay. The format is biochemical. An outline of the steps:
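Serum-purified human factor D (80 nM final) preincubated with compound 5 min at room temperature in 50 mM Tris, 1 M NaCl, pH 7.5. Z-L-Lys-SBzl and DTNB added at 100 μM each; A405 followed every 30 s for 30 min. IC50 by nonlinear regression of rates.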

Where [1] appears, read: Table 5, Human Factor D 80 nM, substrate Z-L-Lys-SBzl, read-out: IC50 (Stars).

SMILES strings stand for the structures. Where two headings read alike, the source gives them in different places.

Chain of Human Factor D (P00746 26-253): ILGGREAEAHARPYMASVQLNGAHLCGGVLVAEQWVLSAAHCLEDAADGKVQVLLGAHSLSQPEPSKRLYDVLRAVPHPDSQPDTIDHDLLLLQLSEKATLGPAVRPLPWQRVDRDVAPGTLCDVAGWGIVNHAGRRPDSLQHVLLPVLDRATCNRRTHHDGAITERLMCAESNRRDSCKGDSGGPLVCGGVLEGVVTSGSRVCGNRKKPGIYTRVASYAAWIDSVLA

`COc1ncc(-c2cc(CC(=O)N3[C@H](C(=O)Nc4nc(Br)ccc4C)C[C@@]4(C)C[C@@H]34)cc(-c3cnc(OC)nc3)c2)cn1` [Compound T-109, (1R,3S,5R)-2-(2-(3,5-bis(2-methoxypyrimidin-5-yl)phenyl)acetyl)-N-(6-bromo-3-methylpyridin-2-yl)-5-methyl-2-azabicyclo[3.1.0]hexane-3-carboxamide]: the IC50 (Table 7, read-out: IC5 (Stars)) is over 10000 nM. The same measure, in the same setting: the value for `Cc1ncc(-c2cc(CC(=O)N3C[C@H](F)C[C@H]3C(=O)Nc3cccc(Br)n3)cc(C(N)=O)c2)cn1` [Compound T-167, (2S,4R)-N-(6-bromopyridin-2-yl)-1-(2-(3-carbamoyl-5-(2-methylpyrimidin-5-yl)phenyl)acetyl)-4-fluoropyrrolidine-2-carboxamide] was 1000 to 10000 nM. Turning to `CC(=O)c1ccn(CC(=O)N2C[C@H](F)C[C@H]2C(=O)Nc2cccc(Br)n2)n1` [Compound T-14, (2S,4R)-1-(2-(3-acetyl-1H-pyrazol-1-yl)acetyl)-N-(6-bromopyridin-2-yl)-4-fluoropyrrolidine-2-carboxamide], the IC50 under setting [1] was under 1000 nM. Take `CC(=O)c1nn(CC(=O)N2[C@H](C(=O)Nc3nc(Br)ccc3C)C[C@@]3(CNC(=O)COCCOCCNC(=O)COCCOCCNC(=O)CCCCCCCCCCCCCCCCC(=O)O)C[C@@H]23)c2ccc(OC(=O)NC3CC3)cc12` [Compound T-128, 1-((1R,3S,5R)-2-(2-(3-acetyl-5-((cyclopropylcarbamoyl)oxy)-1H-indazol-1-yl)acetyl)-3-((6-bromo-3-methylpyridin-2-yl)carbamoyl)-2-azabicyclo[3.1.0]hexan-5-yl)-3,12,21-trioxo-5,8,14,17-tetraoxa-2,11,20-triazaoctatriacontan-38-oic acid]: the IC50 (Table 7, read-out: IC5 (Stars)) was under 1000 nM. As for `CC(=O)c1nn(CC(=O)N2[C@H](C(=O)Nc3nc(Br)ccc3C)C[C@@]3(CNC(=O)COCCOCCNC(=O)COCCOCCNC(=O)CC[C@H](NC(=O)CCCCCCCCCCCCCCCCC(=O)O)C(=O)O)C[C@@H]23)c2ccccc12` [Compound T-85, (S)-1-((1R,3S,5R)-2-(2-(3-acetyl-1H-indazol-1-yl)acetyl)-3-((6-bromo-3-methylpyridin-2-yl)carbamoyl)-2-azabicyclo[3.1.0]hexan-5-yl)-24-carboxy-3,12,21,26-tetraoxo-5,8,14,17-tetraoxa-2,11,20,25-tetraazatritetracontan-43-oic acid], the IC50 (Table 7, read-out: IC5 (Stars)) was under 1000 nM. On to `CCOP(=O)(CC)COc1ccc2c(C(C)=O)nn(CC(=O)N3C[C@H](F)C[C@H]3C(=O)Nc3nc(Br)ccc3C)c2c1` (stereo partly drawn) [Compound T-77, ethyl (((3-acetyl-1-(2-((2S,4R)-2-((6-bromo-3-methylpyridin-2-yl)carbamoyl)-4-fluoropyrrolidin-1-yl)-2-oxoethyl)-1H-indazol-6-yl)oxy)methyl)(ethyl)phosphinate], for which the IC50 (Table 7, read-out: IC5 (Stars)) is under 1000 nM. Consider `Cc1ncc(-c2cc(C#N)cc(CC(=O)N3[C@H](C(=O)Nc4nc(Br)ccc4C)C[C@@]4(C)C[C@@H]34)c2)cn1` [Compound T-171, (1R,3S,5R)-N-(6-bromo-3-methylpyridin-2-yl)-2-(2-(3-cyano-5-(2-methylpyrimidin-5-yl)phenyl)acetyl)-5-methyl-2-azabicyclo[3.1.0]hexane-3-carboxamide], for which the IC50 (Table 7, read-out: IC5 (Stars)) is 1000 to 10000 nM. Consider `CC(=O)c1nn(CC(=O)N2[C@H](C(=O)Nc3nc(Br)ccc3C)C[C@@]3(CN4C[C@H]5CCC[C@H]5C4)C[C@@H]23)c2c(C)cccc12` [Compound T-39, (1R,3S,5R)-2-(2-(3-acetyl-7-methyl-1H-indazol-1-yl)acetyl)-N-(6-bromo-3-methylpyridin-2-yl)-5-(((3aR,6aS)-hexahydrocyclopenta[c]pyrrol-2(1H)-yl)methyl)-2-azabicyclo[3.1.0]hexane-3-carboxamide], for which the IC50 under setting [1] is under 1000 nM. Consider `Cc1ccc(Br)nc1NC(=O)[C@@H]1C[C@@]2(C)C[C@H]2N1C(=O)Cc1cccc(-c2nnn[nH]2)c1` [Compound T-91, (1R,3S,5R)-2-(2-(3-(1H-tetrazol-5-yl)phenyl)acetyl)-N-(6-bromo-3-methylpyridin-2-yl)-5-methyl-2-azabicyclo[3.1.0]hexane-3-carboxamide], for which the IC50 (Table 7, read-out: IC5 (Stars)) was over 10000 nM. For `CC(=O)c1nn(CC(=O)N2[C@H]3C[C@@]3(CN(C)C)C[C@H]2C(=O)Nc2nc(Br)ccc2C)c2cc(C(=O)NS(=O)(=O)C3CC3)ccc12` [Compound T-50, 3-acetyl-1-(2-((1S,3S,5S)-3-((6-bromo-3-methylpyridin-2-yl)carbamoyl)-5-((dimethylamino)methyl)-2-azabicyclo[3.1.0]hexan-2-yl)-2-oxoethyl)-N-(cyclopropylsulfonyl)-1H-indazole-6-carboxamide], the IC50 under setting [1] fell in the range of 1000 to 10000 nM. As for `Cc1ccc(Br)nc1NC(=O)[C@@H]1C[C@@]2(C)C[C@H]2N1C(=O)Cc1ccc2[nH]nc(Cl)c2c1` [Compound T-99, (1R,3S,5R)-N-(6-bromo-3-methylpyridin-2-yl)-2-(2-(3-chloro-1H-indazol-5-yl)acetyl)-5-methyl-2-azabicyclo[3.1.0]hexane-3-carboxamide], the IC50 (Table 7, read-out: IC5 (Stars)) fell in the range of 1000 to 10000 nM.

`CC(=O)c1nn(CC(=O)N2C[C@H](F)C[C@H]2C(=O)Nc2cccc(Br)n2)c2ccc(O[C@@H]3CO[C@H]4[C@@H]3OC[C@H]4OC(=O)[C@@H](N)C(C)C)cc12` [Compound T-57, (3R,3aR,6R,6aR)-6-((3-acetyl-1-(2-((2S,4R)-2-((6-bromopyridin-2-yl)carbamoyl)-4-fluoropyrrolidin-1-yl)-2-oxoethyl)-1H-indazol-5-yl)oxy)hexahydrofuro[3,2-b]furan-3-yl L-valinate]: where the note is “Table 6, Human Factor D 80 nM, substrate Z-L-Lys-SBzl, read-out: IC5 (Stars)”, the IC50 was under 1000 nM. Turning to `CC(=O)c1nn(CC(=O)N2[C@H](C(=O)Nc3nc(Br)ccc3C)C[C@@]3(C)C[C@@H]23)c2c(C)cc(NC(=O)C3CCCC3(F)F)cc12` (stereo partly drawn) [Compound T-66, (1R,3S,5R)-2-(2-(3-acetyl-5-(2,2-difluorocyclopentane-1-carboxamido)-7-methyl-1H-indazol-1-yl)acetyl)-N-(6-bromo-3-methylpyridin-2-yl)-5-methyl-2-azabicyclo[3.1.0]hexane-3-carboxamide], the IC50 (Table 7, read-out: IC5 (Stars)) was under 1000 nM. Still for that read-out and setting: in the case of `CC(=O)c1nn(CC(=O)N2[C@H](C(=O)NCc3cccc(Cl)c3F)C[C@@]3(CNC(=O)COCCOCCNC(=O)COCCOCCNC(=O)CC[C@H](NC(=O)CCCCCCCCCCCCCCCCC(=O)O)C(=O)O)C[C@@H]23)c2c(C)cc(NC(=O)N3CCCC(F)(F)C3)cc12` [Compound T-68, (S)-1-((1R,3S,5R)-2-(2-(3-acetyl-5-(3,3-difluoropiperidine-1-carboxamido)-7-methyl-1H-indazol-1-yl)acetyl)-3-((3-chloro-2-fluorobenzyl)carbamoyl)-2-azabicyclo[3.1.0]hexan-5-yl)-24-carboxy-3,12,21,26-tetraoxo-5,8,14,17-tetraoxa-2,11,20,25-tetraazatritetracontan-43-oic acid] it was under 1000 nM. Take `NC(=O)c1cc(C(F)(F)F)n(CC(=O)N2C[C@H](F)C[C@H]2C(=O)Nc2cccc(Br)n2)n1` [Compound T-15, 1-(2-((2S,4R)-2-((6-bromopyridin-2-yl)carbamoyl)-4-fluoropyrrolidin-1-yl)-2-oxoethyl)-5-(trifluoromethyl)-1H-pyrazole-3-carboxamide]: the IC50 under setting [1] is under 1000 nM.
